Results as given in ChEMBL document CHEMBL4715815, “Design, synthesis and biological evaluation of 7H-pyrrolo[2,3-d]pyrimidin-4-amine derivatives as selective Btk inhibitors with improved pharmacokinetic properties for the treatment of rheumatoid arthritis” (Eur J Med Chem, 2018).
Activity calls are given as the source filed them. The calls are words filed in the database; no cut-off is given here.

Assays:
[1] = biological target: T1, Tyrosine-protein kinase BTK (Homo sapiens, UniProt Q06187); assay: Inhibition of BTK in human Raji cells assessed as reduction in PLCgamma2 Y1217 phosphorylation at 0.03 to 10 uM incubated for 1 hr by Western blot analysis; assay type: cell-based; conditions: dose 0.03-10 µM
T1 sequence (Q06187 whole entry): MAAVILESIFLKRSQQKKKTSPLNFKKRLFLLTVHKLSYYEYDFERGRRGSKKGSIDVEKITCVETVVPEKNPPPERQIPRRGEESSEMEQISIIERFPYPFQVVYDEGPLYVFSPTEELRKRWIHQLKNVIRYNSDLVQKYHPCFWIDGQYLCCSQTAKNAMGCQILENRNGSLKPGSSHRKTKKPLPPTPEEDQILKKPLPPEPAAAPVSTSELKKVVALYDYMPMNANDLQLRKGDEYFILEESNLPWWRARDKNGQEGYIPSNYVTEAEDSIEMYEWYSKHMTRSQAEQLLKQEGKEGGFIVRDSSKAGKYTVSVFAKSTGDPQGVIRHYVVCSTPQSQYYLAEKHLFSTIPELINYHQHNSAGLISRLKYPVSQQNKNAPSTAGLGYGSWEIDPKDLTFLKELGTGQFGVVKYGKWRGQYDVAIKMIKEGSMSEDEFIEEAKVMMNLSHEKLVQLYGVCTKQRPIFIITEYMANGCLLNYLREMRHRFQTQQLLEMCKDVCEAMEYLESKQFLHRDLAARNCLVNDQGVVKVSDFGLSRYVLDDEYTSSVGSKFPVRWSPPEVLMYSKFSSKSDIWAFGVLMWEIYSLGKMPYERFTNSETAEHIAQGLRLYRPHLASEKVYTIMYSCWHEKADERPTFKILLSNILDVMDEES

[2] = biological target: T1, Tyrosine-protein kinase BTK; assay: Inhibition of BTK (unknown origin) by caliper mobility shift assay
THP-1 = assay: Cytotoxicity against human THP-1 cells assessed as reduction in cell viability incubated for 72 hrs by MTT assay; assay type: ADME, cell-based; conditions: THP-1, 72 h
[3] = biological target: T1, Tyrosine-protein kinase BTK; assay: Inhibition of BTK in human Daudi cells assessed as reduction in PLCgamma2 Y1217 phosphorylation at 0.03 to 10 uM incubated for 1 hr by Western blot analysis; assay type: cell-based; conditions: dose 0.03-10 µM
[4] = Tmax in Sprague-Dawley rat at 3 mg/kg, iv measured up to 24 hrs by LC-MS/MS analysis; assay type: ADME, organism-based; conditions: in vivo
[5] = Half life in Sprague-Dawley rat at 3 mg/kg, iv measured up to 24 hrs by LC-MS/MS analysis; assay type: ADME, organism-based; conditions: in vivo
[6] = Volume of distribution in Sprague-Dawley rat at 3 mg/kg, iv measured up to 24 hrs by LC-MS/MS analysis; assay type: ADME, organism-based; conditions: in vivo
[7] = Cmax in Sprague-Dawley rat at 3 mg/kg, po measured up to 24 hrs by LC-MS/MS analysis; assay type: ADME, organism-based; design: route oral, dose 3 mg/kg, time <=24; conditions: in vivo
[8] = AUC (0 to t) in Sprague-Dawley rat at 3 mg/kg, po measured up to 24 hrs by LC-MS/MS analysis; assay type: ADME, organism-based; design: route oral, dose 3 mg/kg, time <=24; conditions: in vivo
[9] = Volume of distribution in Sprague-Dawley rat at 3 mg/kg, po measured up to 24 hrs by LC-MS/MS analysis; assay type: ADME, organism-based; conditions: in vivo
[10] = Metabolic stability in dog liver microsomes assessed as half life at 100 uM/L measured upto 90 mins by LC-MS/MS analysis; assay type: ADME, Canis lupus familiaris, Microsome
[11] = Metabolic stability in human liver microsomes assessed as intrinsic clearance at 100 uM/L measured upto 90 mins by LC-MS/MS analysis; assay type: ADME, Microsome; conditions: 1.5 h
[12] = Metabolic stability in dog liver microsomes assessed as intrinsic clearance at 100 uM/L measured upto 90 mins by LC-MS/MS analysis; assay type: ADME, Canis lupus familiaris, Microsome; conditions: 1.5 h
[13] = Metabolic stability in mouse liver microsomes assessed as intrinsic clearance at 100 uM/L measured upto 90 mins by LC-MS/MS analysis; assay type: ADME, Microsome; conditions: 1.5 h
Mus musculus [14] = assay: Antiarthritic activity in DBA/1J mouse model of collagen-induced arthritis at 20 mg/kg, po administered for 30 days and measured on day 30; assay type: functional, organism-based; conditions: time 30.0 day
Mus musculus [15] = assay: Antiarthritic activity in DBA/1J mouse model of collagen-induced arthritis assessed as reduction in edema formation at 20 mg/kg, po administered for 30 days and measured on day 30; assay type: functional, organism-based; conditions: time 30.0 day
[16] = Toxicity in DBA/1J mouse assessed as effect on body weight at 20 mg/kg, po administered for 30 days and measured on day 30; assay type: organism-based; conditions: in vivo, 720 h, time 30 day
[17] = biological target: Tyrosine-protein kinase ITK/TSK (Homo sapiens, UniProt Q08881); assay: Inhibition of ITK (unknown origin)
Chain of Tyrosine-protein kinase ITK/TSK (Q08881 whole entry): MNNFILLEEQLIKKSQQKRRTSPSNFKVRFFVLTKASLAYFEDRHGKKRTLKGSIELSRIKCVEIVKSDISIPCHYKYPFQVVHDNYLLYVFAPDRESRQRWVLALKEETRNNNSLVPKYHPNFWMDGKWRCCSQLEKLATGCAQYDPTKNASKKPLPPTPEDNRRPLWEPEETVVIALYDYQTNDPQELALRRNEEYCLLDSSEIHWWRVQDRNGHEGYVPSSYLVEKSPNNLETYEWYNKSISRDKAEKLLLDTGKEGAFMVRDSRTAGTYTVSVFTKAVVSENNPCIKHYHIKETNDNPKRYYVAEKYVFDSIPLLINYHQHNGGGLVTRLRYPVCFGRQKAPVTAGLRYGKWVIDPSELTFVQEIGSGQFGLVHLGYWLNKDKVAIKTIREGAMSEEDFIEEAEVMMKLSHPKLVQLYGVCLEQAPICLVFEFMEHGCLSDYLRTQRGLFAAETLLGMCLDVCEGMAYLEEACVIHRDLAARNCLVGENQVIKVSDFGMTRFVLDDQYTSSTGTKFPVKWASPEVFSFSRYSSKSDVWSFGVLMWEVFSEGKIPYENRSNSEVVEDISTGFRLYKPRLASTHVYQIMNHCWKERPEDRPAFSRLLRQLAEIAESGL

[18] = biological target: Tyrosine-protein kinase TXK (Homo sapiens, UniProt P42681); assay: Inhibition of TXK (unknown origin)
Chain of Tyrosine-protein kinase TXK (P42681 whole entry): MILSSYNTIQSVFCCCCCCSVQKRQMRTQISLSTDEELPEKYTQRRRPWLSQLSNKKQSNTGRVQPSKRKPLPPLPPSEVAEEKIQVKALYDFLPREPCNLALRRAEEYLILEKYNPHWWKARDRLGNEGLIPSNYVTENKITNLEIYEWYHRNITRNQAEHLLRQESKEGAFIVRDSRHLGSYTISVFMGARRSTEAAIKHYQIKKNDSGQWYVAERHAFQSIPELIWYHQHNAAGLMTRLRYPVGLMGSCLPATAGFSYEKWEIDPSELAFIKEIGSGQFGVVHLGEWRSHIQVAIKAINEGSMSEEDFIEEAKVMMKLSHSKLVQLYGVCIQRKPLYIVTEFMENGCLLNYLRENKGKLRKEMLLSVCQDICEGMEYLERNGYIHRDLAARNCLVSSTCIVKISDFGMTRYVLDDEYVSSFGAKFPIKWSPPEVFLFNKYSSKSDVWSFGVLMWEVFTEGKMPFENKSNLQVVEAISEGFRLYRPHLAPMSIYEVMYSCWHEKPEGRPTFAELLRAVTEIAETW

[19] = biological target: Tyrosine-protein kinase Blk (Homo sapiens, UniProt P51451); assay: Inhibition of BLK (unknown origin)
[20] = biological target: Receptor tyrosine-protein kinase erbB-4 (Homo sapiens, UniProt Q15303); assay: Inhibition of ErBB4 (unknown origin)
[21] = biological target: Dual specificity mitogen-activated protein kinase kinase 7 (Homo sapiens, UniProt O14733); assay: Inhibition of MKK7beta (unknown origin)
[22] = biological target: Tyrosine-protein kinase JAK3 (Homo sapiens, UniProt P52333); assay: Inhibition of recombinant human JAK3 using Ulight-CAGAGAIETDKEYYTVKD as substrate incubate for 60 mins by LANCE assay
Chain of Tyrosine-protein kinase JAK3 (P52333 whole entry): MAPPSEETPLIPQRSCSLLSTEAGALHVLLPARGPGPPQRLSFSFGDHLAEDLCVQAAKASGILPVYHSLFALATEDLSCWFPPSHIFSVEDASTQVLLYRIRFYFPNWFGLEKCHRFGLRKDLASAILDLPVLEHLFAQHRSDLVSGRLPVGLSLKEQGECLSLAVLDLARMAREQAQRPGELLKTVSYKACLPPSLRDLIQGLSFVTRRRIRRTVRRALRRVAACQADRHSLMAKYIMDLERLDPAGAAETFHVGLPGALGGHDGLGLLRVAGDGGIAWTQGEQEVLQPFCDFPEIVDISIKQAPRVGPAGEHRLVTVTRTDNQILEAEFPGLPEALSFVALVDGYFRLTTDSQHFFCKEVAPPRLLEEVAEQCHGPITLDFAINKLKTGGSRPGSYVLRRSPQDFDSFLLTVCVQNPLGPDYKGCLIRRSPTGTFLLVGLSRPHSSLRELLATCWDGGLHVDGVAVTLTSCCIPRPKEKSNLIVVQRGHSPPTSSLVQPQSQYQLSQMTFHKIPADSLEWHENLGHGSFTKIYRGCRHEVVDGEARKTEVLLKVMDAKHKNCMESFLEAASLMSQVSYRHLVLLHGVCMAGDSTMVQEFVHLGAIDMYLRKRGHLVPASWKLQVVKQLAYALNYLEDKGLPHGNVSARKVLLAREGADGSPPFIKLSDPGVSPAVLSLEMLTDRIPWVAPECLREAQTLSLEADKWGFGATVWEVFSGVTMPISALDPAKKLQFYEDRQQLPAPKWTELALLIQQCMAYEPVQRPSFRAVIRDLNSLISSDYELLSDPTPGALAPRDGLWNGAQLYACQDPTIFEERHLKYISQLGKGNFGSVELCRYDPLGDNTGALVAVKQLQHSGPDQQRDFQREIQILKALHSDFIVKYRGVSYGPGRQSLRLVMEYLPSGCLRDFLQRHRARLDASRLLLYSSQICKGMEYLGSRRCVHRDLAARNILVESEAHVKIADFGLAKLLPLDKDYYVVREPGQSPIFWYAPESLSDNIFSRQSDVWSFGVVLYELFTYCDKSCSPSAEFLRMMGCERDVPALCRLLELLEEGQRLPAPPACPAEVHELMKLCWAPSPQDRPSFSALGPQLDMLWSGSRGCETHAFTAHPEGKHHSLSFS

[23] = biological target: Tyrosine-protein kinase JAK1 (Homo sapiens, UniProt P23458); assay: Inhibition of JAK1 (unknown origin)
Chain of Tyrosine-protein kinase JAK1 (P23458 whole entry): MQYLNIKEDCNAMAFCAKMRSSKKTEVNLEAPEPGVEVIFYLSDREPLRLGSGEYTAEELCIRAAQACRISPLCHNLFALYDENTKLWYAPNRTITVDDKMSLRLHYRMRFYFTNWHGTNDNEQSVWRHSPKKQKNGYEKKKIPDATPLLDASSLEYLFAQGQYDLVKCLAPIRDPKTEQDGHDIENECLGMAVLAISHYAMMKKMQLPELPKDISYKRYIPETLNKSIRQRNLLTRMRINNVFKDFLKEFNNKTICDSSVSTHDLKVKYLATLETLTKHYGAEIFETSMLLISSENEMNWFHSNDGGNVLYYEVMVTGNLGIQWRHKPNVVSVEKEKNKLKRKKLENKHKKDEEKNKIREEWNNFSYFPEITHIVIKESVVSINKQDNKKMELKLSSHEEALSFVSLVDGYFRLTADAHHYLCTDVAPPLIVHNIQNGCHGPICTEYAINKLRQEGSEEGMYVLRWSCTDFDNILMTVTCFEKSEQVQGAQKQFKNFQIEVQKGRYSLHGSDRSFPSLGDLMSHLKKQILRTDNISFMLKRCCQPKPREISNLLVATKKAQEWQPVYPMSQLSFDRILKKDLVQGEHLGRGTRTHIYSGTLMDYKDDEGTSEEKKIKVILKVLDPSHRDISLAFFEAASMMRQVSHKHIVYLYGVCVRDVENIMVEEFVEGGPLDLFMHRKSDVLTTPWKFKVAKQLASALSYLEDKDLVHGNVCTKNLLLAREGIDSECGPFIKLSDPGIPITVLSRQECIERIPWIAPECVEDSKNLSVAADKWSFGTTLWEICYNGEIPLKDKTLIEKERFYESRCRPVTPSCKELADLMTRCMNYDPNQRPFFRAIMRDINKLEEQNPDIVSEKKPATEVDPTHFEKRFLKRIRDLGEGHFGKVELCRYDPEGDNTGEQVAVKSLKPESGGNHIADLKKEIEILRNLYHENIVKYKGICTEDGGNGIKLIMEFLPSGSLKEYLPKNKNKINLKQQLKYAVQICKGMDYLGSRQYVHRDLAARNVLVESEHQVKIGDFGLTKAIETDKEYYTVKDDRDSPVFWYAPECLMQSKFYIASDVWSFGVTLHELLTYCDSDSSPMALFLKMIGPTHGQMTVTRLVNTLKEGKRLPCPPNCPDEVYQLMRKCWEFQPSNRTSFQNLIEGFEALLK

[24] = biological target: Tyrosine-protein kinase JAK2 (Homo sapiens, UniProt O60674); assay: Inhibition of recombinant human JAK2 using Ulight-CAGAGAIETDKEYYTVKD as substrate incubate for 60 mins by LANCE assay
[25] = biological target: Calcium/calmodulin-dependent protein kinase type IV (Homo sapiens, UniProt Q16566); assay: Inhibition of CAMK4 (unknown origin)
[26] = biological target: Calcium/calmodulin-dependent protein kinase kinase 2 (Homo sapiens, UniProt Q96RR4); assay: Inhibition of CAMKK2 (unknown origin)
[27] = biological target: Dual specificity mitogen-activated protein kinase kinase 1 (Homo sapiens, UniProt Q02750); assay: Inhibition of recombinant human MEK1 using inactivated ERK2 as substrate incubate for 60 mins by LANCE assay
[28] = biological target: Ribosomal protein S6 kinase alpha-1 (Homo sapiens, UniProt Q15418); assay: Inhibition of RSK1 (unknown origin)
[29] = biological target: Dual specificity mitogen-activated protein kinase kinase 4 (Homo sapiens, UniProt P45985); assay: Inhibition of MKK4 (unknown origin)
Chain of Dual specificity mitogen-activated protein kinase kinase 4 (P45985 whole entry): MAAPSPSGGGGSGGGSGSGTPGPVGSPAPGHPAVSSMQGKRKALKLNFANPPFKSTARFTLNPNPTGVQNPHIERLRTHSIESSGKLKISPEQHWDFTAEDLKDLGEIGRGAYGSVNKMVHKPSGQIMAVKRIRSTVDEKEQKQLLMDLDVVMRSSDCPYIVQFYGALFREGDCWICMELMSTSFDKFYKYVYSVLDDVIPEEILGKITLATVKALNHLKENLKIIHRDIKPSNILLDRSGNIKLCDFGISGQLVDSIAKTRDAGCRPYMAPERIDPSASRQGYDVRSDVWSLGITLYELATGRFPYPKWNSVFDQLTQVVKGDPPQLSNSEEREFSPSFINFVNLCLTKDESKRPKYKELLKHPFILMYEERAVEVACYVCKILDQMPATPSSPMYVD

[30] = biological target: Tyrosine-protein kinase FRK (Homo sapiens, UniProt P42685); assay: Inhibition of FRK (unknown origin)
[31] = biological target: Tyrosine-protein kinase HCK (Homo sapiens, UniProt P08631); assay: Inhibition of HCK (unknown origin)
Chain of Tyrosine-protein kinase HCK (P08631 whole entry): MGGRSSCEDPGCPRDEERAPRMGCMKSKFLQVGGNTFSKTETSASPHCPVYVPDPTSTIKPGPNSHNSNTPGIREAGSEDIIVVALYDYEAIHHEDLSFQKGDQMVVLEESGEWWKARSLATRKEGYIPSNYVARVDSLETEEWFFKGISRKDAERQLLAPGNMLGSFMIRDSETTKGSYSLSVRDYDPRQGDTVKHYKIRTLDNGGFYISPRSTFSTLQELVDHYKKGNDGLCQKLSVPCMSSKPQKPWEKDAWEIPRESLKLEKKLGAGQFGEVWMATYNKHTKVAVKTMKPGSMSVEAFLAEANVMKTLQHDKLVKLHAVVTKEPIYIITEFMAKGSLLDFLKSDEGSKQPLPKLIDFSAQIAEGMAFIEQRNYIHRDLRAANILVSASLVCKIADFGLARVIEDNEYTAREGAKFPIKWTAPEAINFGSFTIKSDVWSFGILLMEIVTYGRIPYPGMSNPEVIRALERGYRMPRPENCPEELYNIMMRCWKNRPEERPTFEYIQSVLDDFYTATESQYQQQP

[32] = biological target: Tyrosine-protein kinase Lck (Homo sapiens, UniProt P06239); assay: Inhibition of recombinant human LCK using Ulight-Poly GAT[EAY(1:1:1)]n as substrate incubate for 10 mins by LANCE assay
[33] = biological target: Tyrosine-protein kinase Lyn (Homo sapiens, UniProt P07948); assay: Inhibition of recombinant human LYN using biotinyl-beta Abeta-Abeta AKVEKIGEGTYGVVYK as substrate incubate for 120 mins by LANCE assay
[34] = biological target: Ribosomal protein S6 kinase alpha-2 (Homo sapiens, UniProt Q15349); assay: Inhibition of RSK3 (unknown origin)
[35] = biological target: Tyrosine-protein kinase SYK (Homo sapiens, UniProt P43405); assay: Inhibition of SYK (unknown origin)
[36] = biological target: NT-3 growth factor receptor (Homo sapiens, UniProt Q16288); assay: Inhibition of TRKc (unknown origin)
[37] = biological target: T1, Tyrosine-protein kinase BTK
Description: Reversible inhibition of BTK (unknown origin) assessed as association rate constant by caliper mobility shift assay

[38] = Toxicity in BALB/c mouse assessed as free movement at 2 g/kg, po measured after 7 days of administration; conditions: in vivo, 168 h
[39] = Toxicity in BALB/c mouse assessed as clinical signs at 2 g/kg, po measured after 7 days of administration; conditions: in vivo, 168 h
[40] = Toxicity in BALB/c mouse assessed as effect on sensitive to light at 2 g/kg, po measured after 7 days of administration; conditions: in vivo, 168 h

**Q.** What does the source list for `C=CC(=O)N1CCC(Cn2cc(-c3ccc4c(c3)OCO4)c3c(N)ncnc32)CC1`?
**A.** inhibition [1]: Active; IC50 [2]: 0.0217 µM; IC50 (THP-1): 38.9 µM; inhibition [3]: Active; Tmax [4]: 6.6 min; t1/2 [5]: 5.18 h; Vd [6]: 1.21 L/kg; Cmax [7]: 258 ng/mL; AUC(0-t) at 24 h [8]: 1240 ng·h/mL; Vd [9]: 26.15 L/kg; half-life at 100 µM [10]: 5.25 h; CLH [11]: 4.2 µL/min/mg; CLH [12]: 4.4 µL/min/mg; CLH [13]: 5.4 µL/min/mg; Activity (Mus musculus [14]): Active; Activity (Mus musculus [15]): Active; Activity [16]: Non-Toxic; IC50 [17]: > 10 µM; IC50 [18]: 0.331 µM; IC50 [19]: 0.504 µM; IC50 [20]: > 10 µM; IC50 [21]: > 10 µM; IC50 [22]: > 10 µM; IC50 [23]: > 10 µM; IC50 [24]: > 10 µM; IC50 [25]: > 10 µM; IC50 [26]: > 10 µM; IC50 [27]: > 10 µM; IC50 [28]: > 10 µM; IC50 [29]: > 10 µM; IC50 [30]: 1.13 µM; IC50 [31]: 1.11 µM; IC50 [32]: 0.636 µM; IC50 [33]: 0.259 µM; IC50 [34]: > 10 µM; IC50 [35]: > 10 µM; IC50 [36]: > 10 µM; Ka [37]: 9630 M⁻¹ s⁻¹; Activity [38]: Non-Toxic; Activity [39]: Non-Toxic; Activity [40]: Non-Toxic
